Experimental findings from ChEMBL document CHEMBL1136171, “Acetylenic TACE inhibitors. Part 1. SAR of the acyclic sulfonamide hydroxamates” (Bioorg Med Chem Lett, 2003) are described below.

Data set [1] deals with THP-1. As to the kind of experiment: Inhibition of LPS-stimulated production of TNF-alpha, at the dose of 1 uM concentration. The class given is functional. The note with it: for inhibition at 1 µM: Homo sapiens, THP-1.
For data set [2], the target named is T1, Disintegrin and metalloproteinase domain-containing protein 17 (Homo sapiens, UniProt P78536). As to the kind of experiment: In vitro inhibition of tumor necrosis factor-alpha converting enzyme.
T1 sequence (P78536 whole entry, the tested form may be a part): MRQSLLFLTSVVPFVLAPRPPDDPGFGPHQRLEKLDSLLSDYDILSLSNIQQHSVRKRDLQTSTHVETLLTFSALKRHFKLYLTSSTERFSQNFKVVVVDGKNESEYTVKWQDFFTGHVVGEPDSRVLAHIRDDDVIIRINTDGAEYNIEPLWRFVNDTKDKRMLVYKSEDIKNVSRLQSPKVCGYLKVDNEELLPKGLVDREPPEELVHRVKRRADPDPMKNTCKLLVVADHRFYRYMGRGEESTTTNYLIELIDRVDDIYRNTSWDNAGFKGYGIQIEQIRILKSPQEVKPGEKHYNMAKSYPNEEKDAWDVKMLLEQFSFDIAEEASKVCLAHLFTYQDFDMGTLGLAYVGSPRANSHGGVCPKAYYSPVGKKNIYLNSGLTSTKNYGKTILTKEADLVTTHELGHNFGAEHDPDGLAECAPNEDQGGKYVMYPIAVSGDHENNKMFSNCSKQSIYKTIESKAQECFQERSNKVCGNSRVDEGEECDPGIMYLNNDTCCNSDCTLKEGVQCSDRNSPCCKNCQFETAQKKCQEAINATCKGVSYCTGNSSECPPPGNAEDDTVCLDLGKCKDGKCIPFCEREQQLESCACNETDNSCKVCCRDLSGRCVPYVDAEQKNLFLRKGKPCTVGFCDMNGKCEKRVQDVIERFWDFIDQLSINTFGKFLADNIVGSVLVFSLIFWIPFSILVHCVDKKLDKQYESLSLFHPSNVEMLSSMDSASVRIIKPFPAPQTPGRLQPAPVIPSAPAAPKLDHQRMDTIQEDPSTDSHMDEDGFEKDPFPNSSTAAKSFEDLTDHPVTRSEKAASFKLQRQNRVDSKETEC
The target of data set [3] is Matrix metalloproteinase-9 (Homo sapiens, UniProt P14780).
Chain of Matrix metalloproteinase-9 (P14780 whole entry): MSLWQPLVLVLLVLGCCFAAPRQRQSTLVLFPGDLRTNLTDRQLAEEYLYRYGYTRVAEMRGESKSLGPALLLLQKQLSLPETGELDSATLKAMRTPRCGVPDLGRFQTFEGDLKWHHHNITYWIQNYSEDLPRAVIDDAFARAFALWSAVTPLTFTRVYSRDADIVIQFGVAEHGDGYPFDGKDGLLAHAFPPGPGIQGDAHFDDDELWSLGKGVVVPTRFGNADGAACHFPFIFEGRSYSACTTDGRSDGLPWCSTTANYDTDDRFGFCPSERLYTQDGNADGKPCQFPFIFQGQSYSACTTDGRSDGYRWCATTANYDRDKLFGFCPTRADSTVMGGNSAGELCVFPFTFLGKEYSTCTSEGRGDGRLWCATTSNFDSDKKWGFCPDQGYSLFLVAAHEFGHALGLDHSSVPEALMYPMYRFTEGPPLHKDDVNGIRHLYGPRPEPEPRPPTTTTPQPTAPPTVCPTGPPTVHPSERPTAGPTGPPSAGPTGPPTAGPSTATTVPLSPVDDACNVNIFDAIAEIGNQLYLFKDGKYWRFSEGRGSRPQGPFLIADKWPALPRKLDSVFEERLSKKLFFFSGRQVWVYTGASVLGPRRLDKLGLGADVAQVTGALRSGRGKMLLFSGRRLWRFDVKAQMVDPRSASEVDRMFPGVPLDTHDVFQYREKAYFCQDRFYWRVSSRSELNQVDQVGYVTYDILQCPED
Description: In vitro inhibition of Matrix metalloprotein-9
In data set [4] the target is Collagenase 3 (Homo sapiens, UniProt P45452).
Description: In vitro inhibition of Matrix metalloprotein 13
In data set [5] the target is T2, Interstitial collagenase (Homo sapiens, UniProt P03956).
T2 sequence (P03956 whole entry): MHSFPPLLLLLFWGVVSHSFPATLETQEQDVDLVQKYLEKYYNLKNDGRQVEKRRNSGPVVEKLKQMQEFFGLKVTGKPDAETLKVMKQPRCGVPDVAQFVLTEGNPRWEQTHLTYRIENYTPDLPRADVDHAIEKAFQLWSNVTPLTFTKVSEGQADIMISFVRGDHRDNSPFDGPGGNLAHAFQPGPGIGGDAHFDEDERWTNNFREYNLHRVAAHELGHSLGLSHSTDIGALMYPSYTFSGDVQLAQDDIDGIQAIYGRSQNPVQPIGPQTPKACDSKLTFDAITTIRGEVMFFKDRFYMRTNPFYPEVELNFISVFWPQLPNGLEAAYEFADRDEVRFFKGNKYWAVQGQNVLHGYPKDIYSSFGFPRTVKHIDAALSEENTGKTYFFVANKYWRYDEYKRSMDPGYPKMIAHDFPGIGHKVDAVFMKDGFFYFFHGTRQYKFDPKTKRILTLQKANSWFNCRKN
As to the kind of experiment: In vitro inhibition of Matrix metalloprotein 1.

The subject of data set [6] is Mus musculus. As to the kind of experiment: In vivo percent inhibition against LPS-stimulated production of TNF-alpha in a mouse at a dose of 50 mg/Kg p.o. Format: functional. The note with it: po, read-out: Inhibition.
For data set [7], the target named is T1, Disintegrin and metalloproteinase domain-containing protein 17. As to the kind of experiment: Inhibition of tumor necrosis factor-alpha converting enzyme. The note with it: concentration not given here.
Data set [8] relates to THP-1. As to the kind of experiment: Inhibition of LPS-stimulated production of TNF-alpha at the dose of 3 uM concentration. The note with it: Homo sapiens. The class given is functional.
Data set [9] concerns the target T3, Interstitial collagenase (Homo sapiens) (UniProt P03956).
T3 sequence (whole entry): T2 sequence (P03956 whole entry)
As to the kind of experiment: Inhibition of Matrix metalloprotein 1 at 10 uM.

Data set [10] can be described thus: Oral bioavailability in rat at 10 mg/kg of the compound. The note with it: in vivo. The class given is ADME, organism-based.
Data set [11] is described as follows: Oral bioavailability in monkey at 10 mg/kg of the compound. Format: ADME, organism-based. The note with it: cercopithecidae, in vivo.
Data set [12] is described as follows: Oral bioavailability in dog at 10 mg/kg of the compound. Format: ADME, organism-based, Canis lupus familiaris. The note with it: in vivo.
Data set [13] can be described thus: Oral bioavailability in mouse at 10 mg/kg of the compound. Format: ADME, organism-based. The note with it: in vivo.
The species named for data set [14] is Homo sapiens. As to the kind of experiment: Inhibitory concentration against LPS-stimulated TNF-alpha production in human whole blood. Format: functional.
The species named for data set [15] is Mus musculus. As to the kind of experiment: Effective dose in mouse. The class given is functional.
The subject of data set [16] is Mus musculus. As to the kind of experiment: Compound was reproducibly active at reducing clinical severity scores expressed as efficacy in mouse p.o. The class given is functional.
Data set [17] has as its system Mus musculus. As to the kind of experiment: Compound was reproducibly active at reducing clinical severity scores in mouse p.o. The class given is functional.

The structures appear in SMILES notation.

Turning to `CC#CCOc1ccc(S(=O)(=O)N(C)C(C(=O)NO)C(C)(C)SCc2cccnc2)cc1` (stereo not given), 1 µM produced 52% inhibition in data set [1]. The values for the IC50 in [2], in [3] and in data set [4] were 54 nM, 4 nM and 2 nM, respectively.

`CC#CCOc1ccc(S(=O)(=O)NC(CSCc2cccnc2)C(=O)NO)cc1` (stereo not given): the IC50 – broadly, the midpoint of a concentration-inhibition curve – in [5] turned out to be 1910 nM; in [2], 3 nM; in [3], 160 nM; in data set [4], 28 nM. Moreover, the inhibition (usually the percentage by which the read-out fell short of the control) at 1 µM in data set [1] worked out at 56%.

As to `CC#CCOc1ccc(S(=O)(=O)N(C)[C@@H](C(=O)NO)C(C)C)cc1`, the IC50 turned out to be 259 nM in data set [5], 15 nM in [2] and 38 nM in data set [4]. This molecule showed an inhibition at 1 µM in data set [1] of 79%.

Take `CC#CCOc1ccc(S(=O)(=O)N[C@@H](C(=O)NO)C(C)(C)C)cc1`: the inhibition in vivo at 50 mg/kg in data set [6] was > 75%. The same molecule returned an inhibition at 1 µM in [1] of 78%.

Consider `CN(CC(=O)NO)S(=O)(=O)c1ccc(CCC#N)cc1`, for which the IC50 in data set [5] is > 10000 nM; in [3], 74 nM; in data set [4], 207 nM. Moreover, the inhibition in data set [7] is 6%. The inhibition at 3 µM in data set [8] was found to be 7%.

As for `CC#CCOc1ccc(S(=O)(=O)NCC(=O)NO)cc1`, in data set [9], the inhibition came out at 47%. Also, at 1 µM the inhibition in data set [1] was 15%. This molecule also came in with an IC50 in [2] of 5 nM.

In the case of `CC#CCOc1ccc(S(=O)(=O)N(C)[C@H](C)C(=O)NO)cc1`, the IC50 in [5] stood at 330 nM; in data set [2], 5 nM; in data set [3] it was 68 nM; in data set [4] it was 28 nM. The Inhibition (in general, the relative decrease from the control value, in per cent) in data set [1] is recorded as 60%.

Turning to `CC#CCOc1ccc(S(=O)(=O)N(C)CCC(=O)NO)cc1`, in data set [8], the inhibition at 3 µM stood at 9%.

As for `CC#CCOc1ccc(S(=O)(=O)NC(C(=O)NO)C(C)(C)SCc2cccnc2)cc1` (stereo not given), the IC50 worked out at 476 nM in data set [5], 6 nM in [2], 130 nM in [3] and 8 nM in data set [4]. The molecule also showed an inhibition at 1 µM in [1] of 49%.

Turning to `CC#CCOc1ccc(S(=O)(=O)N[C@@H](C(=O)NO)C(C)O)cc1` (stereo not given in full), the bioavailability (usually the share of a dose that reaches the circulation, judged against a reference dose that is usually intravenous) in [10] worked out at 46%; in [11], 17%; in data set [12] it was 75%; in data set [13] it was 100%. Further, the IC50 in data set [14] was 1000 nM; in [5] it was 2470 nM; in [2], 10 nM; in [3], 777 nM; in data set [4], 86 nM. Further, it took a dose of 3 mg/kg to reach the 50% effect level in [15] (ED50). For the same molecule, the Activity in data set [16] was 20 mg/kg; in [17] it was 10 mg/kg. This molecule also had an inhibition at 1 µM in [1] of 50%.

Consider `CC#CCOc1ccc(S(=O)(=O)N[C@@H](C(=O)NO)c2ccc(OCCNC)cc2)cc1`, for which, in data set [5], the IC50 came out at 10000 nM. Moreover, in [1], the inhibition at 1 µM is 48%.

For `C#CCNc1ccc(S(=O)(=O)N(C)CC(=O)NO)cc1`, the IC50 in data set [5] is ~10000 nM.

Consider `CC#CCOc1ccc(S(=O)(=O)NC(C)(C)C(=O)NO)cc1`, for which the inhibition at 1 µM in data set [1] was found to be 9%.

Take `CC#CCOc1ccc(S(=O)(=O)NCCC(=O)NO)cc1`: in [8], the inhibition at 3 µM came out at 0%.

With `CC#CCOc1ccc(S(=O)(=O)N(C)[C@@H](C(=O)NO)c2ccc(OCCNC)cc2)cc1`, the inhibition in vivo at 50 mg/kg in [6] is > 75%. Besides, testing at 1 µM in data set [1] gave an inhibition of 87%.

On to `CC#CCOc1ccc(S(=O)(=O)N(C)CC(=O)NO)cc1`, for which, in data set [1], the inhibition at 1 µM amounted to 22%. It took 7 nM to reach half-maximal inhibition in [2] (IC50).

Turning to `CC#CCOc1ccc(S(=O)(=O)N[C@H](C)C(=O)NO)cc1`, the IC50 in data set [5] was 4030 nM; in data set [2] it was 4 nM; in data set [3], 796 nM; in [4], 195 nM. The inhibition in vivo at 50 mg/kg in [6] is > 75%. For the same molecule, at 1 µM the inhibition in [1] was 40%.

In [1], `CC#CCOc1ccc(S(=O)(=O)N(CC(=O)NO)Cc2cccnc2)cc1` showed an inhibition at 1 µM of 45%.

On to `CC#CCOc1ccc(S(=O)(=O)N[C@@H](C(=O)NO)C(C)C)cc1`, for which the IC50 in data set [5] is 2960 nM; in data set [2] it was 10 nM; in data set [3] it was 42 nM; in data set [4], 18 nM. In data set [1], this molecule yielded an inhibition at 1 µM of 58%.

Molecule `CC#CCOc1ccc(S(=O)(=O)N(C)C(CSCc2cccnc2)C(=O)NO)cc1` (stereo not given) registered an inhibition at 1 µM in data set [1] of 80%. The same molecule returned an IC50 in data set [4] of 5 nM.
